{"source": "patent US20090036540A1", "about": "“Guanylhydrazones in Methods of Treatment or Diagnosis as Modulators of Signal Transduction” (Cytokine PharmaSciences, Inc., priority 2003, published 2009)", "key": {"[1]": {"conditions": "steroid- and infliximab-resistant Crohn's disease; cited from earlier work"}, "4/4 macrophages [2]": {"system": "4/4 macrophages", "assay": "Cytotoxic effect in 4/4 macrophages", "format": "cell-based, murine", "conditions": "Semapimod concentrations ≦1 μM"}, "PBMCs": {"system": "PBMCs", "assay": "Western blot of LPS-stimulated PBMCs for phosphorylated proteins", "format": "cell-based, human", "conditions": "1.0 μM CNI-1493 pre-incubation, LPS 15 minutes", "description": "Peripheral Blood Mononuclear Cells (PBMCs) were isolated from peripheral blood from healthy volunteers using standard density-gradient centrifugation over Ficoll-Paque Plus (Amersham Pharmacia Biotech AB, Uppsala, Sweden) after washing in resuspension in IMDM supplemented with 10% FBS, penicillin, streptomycin and amphotericin (hereafter referred to as complete IMDM).\nFor western blot samples, […] PBMCs were suspended in 1 ml media and LPS stimulations were 15 minute incubations (37° C., 5% CO2) with 10 ng/ml LPS or pre-incubated with 1.0 μM CNI-1493 (Cytokine PharmaSciences, Inc.). Stimulations were terminated by an ice-cold PBS wash. Cells were subsequently pelleted, lysed, denatured (5 minutes at 95° C.) and stored at −20° C. 10^6 PBMCs lysed in 200 μl SDS Sample Buffer (62.5 mM Tris-HCl (pH 6.8 at 25° C.), 2% w/v SDS, 10% glycerol, 50 mM DTT, 0.01% w/v bromophenol blue), 25 μl of which was separated on 12% SDS-PAGE gels and transferred to nitrocellulose membranes. Antibodies for immunoblotting were from Cell Signaling and included Phospho-p38 MAP Kinase (cat #9211), Phospho-p44/42 MAP Kinase (cat #9101), Phospho-PKCzeta/lambda (cat #9378), Phospho-MEK1/2 (cat #9121), Phospho-Raf (cat #9424) and Phospho-SAPK/JNK (cat #9255)."}, "4/4 macrophages [3]": {"system": "4/4 macrophages", "assay": "Western blot of LPS-stimulated 4/4 macrophages for MAPK signaling molecules", "format": "cell-based, murine", "conditions": "0.1 and 1 μM, 1 hour pre-incubation, LPS 100 ng/ml 15 minutes", "description": "4/4 macrophages were used for in vitro experiments and western blot analysis. An in vitro kinase assay was performed to reconfirm findings obtained with western blotting. […] 4/4 macrophages were grown to 70% confluence, pre-incubated for 1 hour with Semapimod (0.1 and 1 μM) and stimulated with LPS (100 ng/ml) for 15 minutes. Cells were harvested in sample buffer and whole cell lysates were loaded onto 10% SDS-PAGE and subsequently transferred to a PVDF membrane. Blots were stained with phospho-specific antibodies for various MAPK signaling molecules. […] Importantly, pRaf protein levels and pPak, upstream of Raf, were not affected due to Semapimod incubation. […] FIG. 6 Western blot: Reduced pP38, pJnk, pErk in 4/4 macrophages treated with Semapimod (1 and 0.1 μM) in LPS present conditions was seen. Moreover, the phosphorylation status of MKK4/7 (upstream of Jnk), and Mek1/2 (upstream of Erk) was affected due to Semapimod treatment. pRaf expression was not influenced by Semapimod. To test for equal loading, western blots were analyzed for actin expression. Similar results were obtained in three independent experiments."}, "pMek1/2": {"system": "pMek1/2", "assay": "Immunohistochemistry of biopsies from Crohn's disease patients for pMek1/2 expression", "format": "in vivo, human", "conditions": "before vs after treatment", "description": "Biopsies obtained from Crohn's disease patients (before and after Semapimod treatment) who participated in the Semapimod-pilot study in the AMC, were analyzed by immunohistochemistry.\nBiopsies obtained from Crohn's disease patients (before and after treatment) who participated in the Semapimod-pilot study performed in our department, were analyzed for pMek1/2 expression (the substrate of Raf) by immunohistochemistry (FIGS. 8-9)."}}, "note": "“Also recorded” adds a separate entry of the source.", "data": [{"smiles": "C/C(=N\\NC(=N)N)c1cc(NC(=O)CCCCCCCCC(=O)Nc2cc(/C(C)=N/NC(=N)N)cc(/C(C)=N/NC(=N)N)c2)cc(/C(C)=N/NC(=N)N)c1", "note": "[Semapimod]", "values": [{"measurement": "clinical effect in Crohn's disease", "setting": "[1]", "result": "induces clinical remission and endoscopal healing"}, {"measurement": "cytotoxic effect", "setting": "4/4 macrophages [2]", "result": "did not have a cytotoxic effect"}, {"measurement": "MEK phosphorylation", "setting": "PBMCs", "result": "abolishes MEK phosphorylation"}, {"measurement": "lipopolysaccharide-dependent phosphorylation of the PKC site in c-Raf", "setting": "PBMCs", "result": "does not interfere"}, {"measurement": "expression of pMKK4/7", "setting": "4/4 macrophages [3]", "result": "reduced expression"}, {"measurement": "expression of pMek1/2", "setting": "4/4 macrophages [3]", "result": "reduced expression"}, {"measurement": "pPak, upstream of Raf", "setting": "4/4 macrophages [3]", "result": "not affected"}, {"measurement": "pRaf protein levels", "setting": "4/4 macrophages [3]", "result": "not affected"}, {"measurement": "phosphorylated-Erk1/2", "setting": "4/4 macrophages [3]", "result": "decrease"}, {"measurement": "phosphorylated-Jnk", "setting": "4/4 macrophages [3]", "result": "decrease"}, {"measurement": "phosphorylated-P38", "setting": "4/4 macrophages [3]", "result": "decrease"}, {"measurement": "pMek1/2 expression in biopsies, responders", "setting": "pMek1/2; Crohn's disease patients who responded (n=5), p=0.0348", "result": "significant decrease"}, {"measurement": "pMek1/2 expression in biopsies, nonresponder", "setting": "pMek1/2; one nonresponder (patient 012)", "result": "increased pMek1/2 expression; also recorded: not affected"}]}]}
